In PubChem BioAssay AID2820 (Sanford-Burnham Center for Chemical Genomics, 2010) one finds IC50 data, which are given here for four compounds.

In the assay the target is G-protein coupled receptor 55 (Homo sapiens) (UniProt Q9Y2T6). The experiment in a line: GPR55 antagonist potency of analogs, SAR follow-up, imaging, U2OS, beta-arrestin-GFP, LPI agonist, set 2 (AID 2820). The note with it: LPI antagonism.
G-protein coupled receptor 55 (Homo sapiens), sequence (Q9Y2T6 whole entry, looked up): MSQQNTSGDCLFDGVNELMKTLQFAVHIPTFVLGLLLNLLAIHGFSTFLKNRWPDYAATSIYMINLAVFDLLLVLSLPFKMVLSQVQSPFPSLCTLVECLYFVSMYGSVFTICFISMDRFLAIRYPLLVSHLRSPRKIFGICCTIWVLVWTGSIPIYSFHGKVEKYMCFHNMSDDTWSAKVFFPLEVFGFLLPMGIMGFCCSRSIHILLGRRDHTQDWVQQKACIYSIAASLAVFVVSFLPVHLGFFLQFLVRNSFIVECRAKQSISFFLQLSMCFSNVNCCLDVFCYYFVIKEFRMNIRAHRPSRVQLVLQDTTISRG
In the case of `Cc1cc(OCC(=O)Nc2ccc(S(=O)(=O)NC3=NCCCCC3)cc2)c(C(C)C)cc1Cl`, the IC50 is 1090 nM.
In the case of `O=C(c1ccco1)N1CCN(c2nc(C3CC3)nc3sc4c(c23)CCCC4)CC1` it was 865 nM; in that of `Cc1ccc(C2(C(=O)N3CCC(n4nc(-c5ccccc5)oc4=O)CC3)CC2)cc1`, 1080 nM; in that of `Cc1nc(N2CCN(C(=O)c3ccco3)CC2)c2c3c(sc2n1)CCCC3`, 702 nM.

For orientation: IC50 means the concentration at which inhibition is half-maximal.
